# From US9623023B2, “Class of non-stimulant treatment and ADHD and related disorders” (The Florida State University Research Foundation, …, priority 2012, dated 2017)
# Entries after “also recorded” stand apart in the source; their conditions may differ.
# Legend:
# PNE mice [1] = settings: active phase (lights off), Zhu 2012; cited from earlier work
# PFC dopamine turnover = settings: PNE mice; MPH administration; Zhu 2012; cited from earlier work
# PNE mice [2] = assay: Locomotor activity (hyperactivity) in prenatal nicotine exposure (PNE) mouse model; assay type: in vivo; settings: oral
# SHR rats = assay: Locomotor activity (hyperactivity) in spontaneously hypertensive rat (SHR) ADHD model; assay type: in vivo
# Procedure: (§1) Spontaneously hypertensive rat (SHR) as an ADHD model. The SHR is a spontaneously occurring mutation associated with hypertension. […] Thus, both the SHR and the PNE mouse model show hyperactivity and increased frontal cortical KOPR activity. The selective KOPR antagonist, nor-BNI (10 mg/kg, i.p.) or the saline vehicle were administered to 60-day old SHR and WKY control rats (Sagvolden et al., 2009 (Reference 56)) at 17:00 hr and locomotor activity measured at hourly intervals over the next 19 hr (FIGS. 4 and 5). […] Since the hyperactivity in the SHR rat was evident during the lights off period from 19:00 hr to 7:00 hr, activity was compared during the lights off period between SHR rats receiving nor-BNI and those receiving saline.
# The long-lasting effects of nor-BNI in the SHR is consistent with previous reports that the desensitization of the KOPR produced by nor-BNI lasts for up to 21 days (Metcalf and Coop, 2005 (Reference 43); Patkar et al., 2013 (Reference 48)).
# KOPR = settings: previous reports (Metcalf and Coop 2005; Patkar 2013); cited from earlier work
# WKY control rats = assay: Locomotor activity in WKY control rats; assay type: in vivo, rat; settings: 10 mg/kg i.p.
# Procedure: as §1
# [3] = long-term usage; Recant 1980; cited from earlier work
# [4] = system: hyperactivity in children; settings: oral, dose range 0.5-2 mg/kg; previous reports; cited from earlier work
smiles,measurement,setting,value
"COC(=O)C(c1ccccc1)C1CCCCN1 (stereo not drawn) [MPH, methylphenidate]",locomotor activity after single oral administration,PNE mice [1],reduces the activity to the levels seen in drug naïve control mice
same,PFC dopamine turnover,PFC dopamine turnover,increases PFC dopamine turnover
same,locomotor activity,"PNE mice [2]; PNE mice, MPH 0.75 mg/kg, FIG. 2 graph 204",significantly decreased locomotor activity
"Oc1ccc2c3c1O[C@H]1c4[nH]c5c(c4C[C@@]4(O)[C@@H](C2)N(CC2CC2)CC[C@]314)C[C@@]1(O)[C@H]2Cc3ccc(O)c4c3[C@@]1(CCN2CC1CC1)[C@H]5O4 [nor-BNI, nor-binaltorphimine]",locomotor activity during lights off period (Mean±SEM beam breaks),"SHR rats; 60-day old SHR, 10 mg/kg i.p. at 17:00 hr, lights off 19:00-7:00 hr, saline=4830.75±609.2, p=0.04",2743.25±945.8 beam breaks
same,effect on locomotor activity compared to saline,"SHR rats; SHR, 10 mg/kg i.p., FIG. 4",reduced the locomotor activity
same,period over which decrease in hyperactivity was observed,"SHR rats; SHR, single i.p. injection 10 mg/kg",21 days
same,duration of desensitization of the KOPR,KOPR,up to 21 days
same,locomotor activity during lights off period (Mean±SEM beam breaks),"WKY control rats; 60-day old WKY control rats, saline=2604.5±608.1, p>0.05",2494.75±831.6 beam breaks
same,effect on locomotor activity,"WKY control rats; WKY control rats, FIG. 5",did not affect locomotor activity
O=C1CC[C@@]2(O)[C@H]3Cc4ccc(O)c5c4[C@@]2(CCN3CC2CC2)[C@H]1O5 [naltrexone],weight gain,[3],reduced weight gain
same,hyperactivity in children,[4],effective in reducing hyperactivity
same,locomotor activity compared to vehicle,"PNE mice [2]; P60 male PNE mice, naltrexone 1 mg/kg, at 19:00 hrs, FIG. 2 graph 202",significantly reduces locomotor activity; also recorded: reduces hyperactivity in PNE mice in a manner comparable to that of methylphenidate
